Laboratory results taken from patent US20230398153A1, “A METHOD FOR EFFICIENT MICROGLIA REPLACEMENT” (The Board of Trustees of the Leland Stanford Junior …, priority 2020, published 2023).

What was measured:
[1] = test system: brain myeloid cells (CD45+CD11b+); assay: HSCT followed by PLX5622 treatment: donor (GFP+) myeloid chimerism in the brain by flow cytometry; format: in vivo, mouse
Excerpt: Microglia depletion after HSCT results in near complete replacement of microglia with bone marrow-derived cells throughout the entire brain. We next tested whether CSF1R inhibition after HSCT enhanced microglia replacement. We therefore performed conventional HSCT with GFP-labeled fresh bone marrow cells. After 28 days, we treated the experimental group with PLX5622 for 10 days and the control group received no drug (FIG. 2A). After another 10 days (7 weeks post transplant) we analyzed the brains and consistently found over 90% of all brain myeloid cells to be GFP^+ by flow cytometry (FIG. 2B, C). […] The transplanted CDMCs had homogeneously populated the entire brain (FIG. 2E). Importantly, this high chimerism was stable and CDMCs remained incorporated for at least 6 months after transplantation (FIG. 2C, 9E).
PLX5622 was provided by Plexxikon Inc. and incorporated to AIN-76A standard chow by Research Diets Inc. at 1200 mg/kg.
Unless otherwise noted, we used female mice at age of 8-12 weeks for both recipients and donors. WT mice were pre-treated with PLX5622 diet between day-21 and day −1 (21 days) and/or busulfan between day-6 and −2 day (5 days). For busulfan pre-treatment, mice received five intraperitoneal (IP) injections of busulfan (sigma, B1 170000) at 25 mg/kg body weight per day. On day 0, bone marrow cells (BMCs) were isolated from tibias and femurs of UBC-GFP mice. Isolated BMCs were resuspended in 1×red blood cell lysis buffer (e-bioscience, 00-4300-54) and incubated for 20 min at room temperature. BMCs were passed through 70 μm cell strainer, washed by applying 10 ml of ice cold PBS and then resuspended in fresh PBS. BMCs (5×10^6) in 200 ul PBS were injected into the retro-orbital sinus of the pre-conditioned recipients. On day 28, the recipient mice were treated with PLX5622 or control diet for 10 days. For tamoxifen injection, tamoxifen (sigma T5648) in corn oil (sigma, C8267) was provided by IP injection to the recipient mice at 200 mg/kg at the indicated time points after bone marrow transplantation.
Microglia cells were isolated from adult mouse brains as described (Shibuya et al., 2014). Anesthetized mice (100 mg/kg of ketamin and 10 mg/kg of xylazine, i.p.) were perfused through the left ventricle with ice-cold PBS without Ca^2+ and Mg^2+. Brains were removed and cut into two pieces along the midline. One hemisphere was immediately transferred to 4% paraformaldehyde for fixation. The other hemi-sphere was minced with a surgical knife, and then transferred to ice-cold HBSS without Ca^2+ and Mg^2+. Minced hemi-brains were centrifuged at 300×g for 2 min at room temperature and then enzymatically digested at 37° C. for 35 min by using Neural Tissue Dissociation Kit (Miltenyi Biotec, 130-092-628) according to the manufacturer's protocol. The cell suspension was passed through a 70 µm cell strainer and washed by applying 10 ml of HBSS with Ca^2+ and Mg^2+ to the strainer. The cell suspension was centrifuged at 300×g for 10 min at room temperature, re-suspended in 30% Percoll (GE Healthcare Lifesciences, 17089102), and then centrifuged at 700×g for 10 min at 4° C. The supernatant containing the myelin was removed and the pellet was washed with 10 ml of HBSS with Ca^2+ and Mg^2+. The resulting pellet was resuspended in FACS buffer and subjected to antibody staining for flow cytometry. Microglia/CDMCs were identified using anti-CD45 and anti-CD11b antibodies.
The following FACS antibodies were used in this study. CD11b (clone M1/70, BioLegend), CD45 (Clone 30-F11, BD biosciences), F4/80 (clone BM8, biolegend), CCR2 (clone SA203G11, biolegend), gp49A/B (clone H1.1), CD115 (CSF1R) (clone AFS98, biolegend), CD117 (c-kit) (clone 2B8, BD biosciences), sca-1 (clone D7, biolegend), cd127 (IL7Ra)(clone SB/199, biolegend), CD16/CD32 (FcR Ill/II) (clone 93, biolegend), CX3CR1 (clone K0124E1, biolegend), cd135 (Flk-2,)(clone A2F10) CD34 (clone561, biolegend), and Ly6C (clone RB6-8C5). […]

[2] = test system: myeloid cells of the spinal cord; assay: Microglia replacement in the spinal cord after BMT+PLX protocol; format: in vivo, mouse; details: PLX5622 treated group
Excerpt: FIG. 21. Efficient microglia replacement in the spinal cord following our BMT+PLX protocol.
Many CNS diseases affect primarily the spinal cord. To evaluate whether our microglia replacement protocol is truly CNS-wide we characterized the spinal cords following a replacement as described above. Indeed, when using GFP-expressing donor cells we were able to identify a high and robust chimerism of GFP-positive, transplanted cell among the myeloid cells of the spinal cord (FIG. 21),

[3] = test system: peripheral blood cell populations; assay: Effect of PLX5622 after HSCT on peripheral blood cell populations; format: in vivo; details: PLX5622 10 days after HSCT, D38
Experimental: FIG. 9. […] (A) Flow cytometry gating for analysis of donor chimerism in PB myeloid cells. (B) Myeloid chimerism in PB was analyzed by flow cytometry at the indicated time point (Horizontal bars represent median values. n=5-6/time point, ns: not significant, Student's t-test). (C) The effect of PLX5622 on PB myeloid cells was analyzed by flow cytometry. Flow cytometry gating for analysis of the indicated cell populations on D38. (D) Quantification of number of the indicated cell populations by flow cytometry (Mean±SEM, n=6/group, ns: not significant, Student's t-test). (E) Representative images of GFP+ and Iba-1+ cells, and DAPI in the cortex of recipient mice at the indicated time points. Scale bars:[…].
The following FACS antibodies were used in this study. […]
Approximately 50 ul of peripheral blood per mouse was collected from the facial vein into a 1.5 ml tubes containing 20ul of 0.5M EDTA. […] The resulting cells were analyzed by flow cytometry.

**Q.** How did the “engraftment of CDMCs into the brain” value ([1]; PLX5622 between days 14 and 24 after HSCT, flow cytometry on D34) turn out when `COc1ncc(F)cc1CNc1ccc(Cc2c[nH]c3ncc(C)cc23)c(F)n1` [PLX5622] was run?
**A.** comparably robust and efficient engraftment

**Q.** And the “fraction of GFP+ cells among brain myeloid cells” value ([1]; PLX5622 pre-treatment before HSCT (busulfan+PLX5622 group), 14 days post IV injection)?
**A.** only a marginal increase

**Q.** And the “expression of microglia-specific marker TMEM119 in CDMCs” value ([1]; PLX5622 treatment following HSCT, cortex, d83)?
**A.** induced expression of the microglia-specific marker TMEM119 in CDMCs

**Q.** And the “duration CDMCs remained incorporated (stable high chimerism)” value ([1]; after transplantation, PLX5622 10 days from D28)?
**A.** at least 6 months

**Q.** And the “brain myeloid cells GFP+ by flow cytometry” value ([1]; busulfan HSCT, PLX5622 10 days from D28, analysed after another 10 days (7 weeks post transplant))?
**A.** over 90%

**Q.** What about the “CDMCs (GFP+) and microglia (GFP-) numbers during PLX5622 treatment” value ([1]; flow cytometry during treatment after HSCT) of the same compound?
**A.** both cell populations were diminished to similar degrees

**Q.** What about the “myeloid cells GFP+ in total spinal cord by flow cytometry” value [2] of the same compound?
**A.** 90%

**Q.** What about the “composition of peripheral blood cell populations” value [3] of the same compound?
**A.** largely unaffected
